Assay results from PMC7795425, “Synthesis and Biological Activity of Brassinosteroid Analogues with a Nitrogen-Containing Side Chain” (International Journal of Molecular Sciences, 2020).
“Also recorded” adds a separate entry of the source.

Key:
[1] = test system: Arabidopsis thaliana L. (Columbia ecotype, Col-0) seedlings; experiment: Arabidopsis root sensitivity bioassay; format: in vivo; settings: for root length, mean: 7-day-old seedlings; for elongation of roots (growth-promoting activity) compared to the control: low concentrations (0.1 and 1 nM)
Method: Several bioassays such as the first bean internode, root growth and rice lamina inclination have been developed to evaluate the growth-promoting activity of BR derivatives. In this work, the activity of new BR analogues was evaluated using the Arabidopsis root sensitivity test because of its simplicity and high sensitivity for BRs.. The characteristic effect of exogenously applied BRs on light-grown Arabidopsis is dose-dependent—BRs in higher concentrations cause inhibition of root growth; vice versa, low concentrations are stimulating. The results obtained for 24-epiBL, which was used as a positive control, and the BR derivatives are shown in Figure 2, Figure 3 and Figure S21. […] A similar trend was shown for dimethylammonium hydrochloride 22a and morpholinium hydrochloride 22e with a long side chain. For numerical values of the average, SD and p-value, see Table S2.
The biological activity of the new BRs derivatives was tested by an Arabidopsis sensitivity bioassay which was performed according to [28]. Briefly, seedlings of Arabidopsis thaliana L. (Columbia ecotype, Col-0) were stratified for 2 days at 4 °C and germinated on vertical half-strength Murashige and Skoog (1% w/v sucrose) agar at 22 °C in a 16 h/8 h light–dark cycle. The plates contained concentrations of 24-epiBL (as positive control) and BR derivatives ranging from 0.1 to 10 nM, respectively 100 nM (for selected derivatives only). After 7 days, roots were straightened on solid media plates and scanned with an Epson high-resolution scanner. The entire root length was measured with ImageJ (http://rsbweb.nih.gov/ij/). For each treatment, more than 15 seedlings were analyzed in two biological repeats, and p-values were calculated with the two-tailed Student t-test using Excel software.
Figure 2 Effect of selected brassinosteroid derivatives on the inhibition of Arabidopsis root length. Seven-day-old Arabidopsis thaliana seedlings (Columbia ecotype, Col-0) were treated with DMSO as control/24epiBL/BR short side chain derivatives; (A)—amides, (B)—amines, (C)—ammonium hydrochlorides. For each treatment, more than 15 seedlings were analyzed in two biological repeats. Error bars represent SD. Asterisks represent significant changes (t-test); * represents p-value < 0.05, in comparison to control.
Figure 3 Effect of selected brassinosteroid derivatives on the inhibition of Arabidopsis root length. Seven-day-old Arabidopsis thaliana seedlings (Columbia ecotype, Col-0) were treated with DMSO as control/24epiBL/BR long side chain derivatives; (A)—amides, (B)—ammonium hydrochlorides. For each treatment, more than 15 seedlings were analyzed in two biological repeats. Error bars represent SD. Asterisks represent significant changes (t-test); * represents p-value < 0.05, in comparison to control.
Table S2: Data for figure 2, 3, and S21. P value <0.05(t-test), comparison to control.
control (mean ± SD) 16.3 ± 1.21
*only selected compounds were tested
mean(mm) SD t-test mean (mm) SD t-test mean (mm) SD t-test mean (mm) SD t-test
(1 picture or pasted object on this page, not shown here)

[2] = Calcein AM cytotoxicity assay, CEM; format: cell-based; settings: human, CEM T-lymphoblastic leukemia cells, IC50 > 50 µM means inactive, read-out: Cytotoxic activity IC50
Method: (§1) The effect of the prepared BRs derivatives on the viability (in Calcein AM assays) of BJ human fibroblasts (as an example of a “normal” cell line) and human cancer cell lines of various histopathological origins, including: T-lymphoblastic leukemia CEM, breast carcinoma MCF7 and cervical carcinoma cell line HeLa, was also studied. Cells of all these lines were exposed to six 3-fold dilutions of each drug for 72 h prior to determination of cell survival. The IC50 (concentration leading to 50% inhibition of viability) values obtained from the Calcein AM cytotoxicity assay were calculated. […] All tested BR nitrogen-containing derivatives had no detectable activity, even when tested in concentrations of up to 50 µM.
(§2) The screening cell lines: T-lymphoblastic leukemia CEM; breast carcinoma MCF7 (estrogen-sensitive); cervical carcinoma cell line HeLa; and human foreskin fibroblasts BJ, were obtained from the American Type Culture Collection (Manassas, VA, USA). Cells were cultured in DMEM (Dulbecco’s Modified Eagle Medium, Sigma, St. Louis, MO, USA). Media used were supplemented with 10% fetal bovine serum, 2mM L-glutamine and 1% penicillin–streptomycin. The cell lines were maintained under standard cell culture conditions at 37 °C and 5% CO2 in a humid environment.
(§3) Cells were subcultured twice or three times a week using the standard trypsinization procedure. Cytotoxicity in cancer cell lines after 72 h was determined as described earlier. Control cultures were treated with DMSO alone, and the final concentration of DMSO in the mixture never exceeded 0.6%. Six serial 3-fold dilutions of the test substances were added at time zero in 20 μL aliquots to the microtiter plate wells and the highest final concentration in the wells was 50 μM.
(§4) Table S3: Cytotoxic activities, IC50 (µM/L)a, of compounds in three tumor and one normal fibroblast
(§5) Compound CEM MCF7 HeLa BJ
(§6) a The lowest concentration that kills 50% of cells.
(§7) b Increase of cell proliferation.

[3] = Calcein AM cytotoxicity assay, MCF7; format: cell-based; settings: human, MCF7 breast carcinoma cells (estrogen-sensitive), MCF7, 72 h, IC50 > 50 µM means inactive, read-out: Cytotoxic activity IC50
Method: as §1, §2, §3, §4, §5, §6, §7

[4] = Calcein AM cytotoxicity assay, BJ; format: cell-based; settings: human, BJ foreskin fibroblasts (normal cell line), IC50 > 50 µM means inactive, read-out: Cytotoxic activity IC50
Method: as §1, §2, §3, §4, §5, §6, §7

[5] = Calcein AM cytotoxicity assay, HeLa; format: cell-based; settings: human, HeLa cervical carcinoma cells, IC50 > 50 µM means inactive, read-out: Cytotoxic activity IC50
Method: as §1, §2, §3, §4, §5, §6, §7

[6] = 100 nM (only selected compounds), control 14.61 ± 0.85

Row | SMILES | root length, mean ([1]; 0.1 nM, control 16.3 ± 1.21) [mm] | root length, mean ([1]; 1 nM, control 16.3 ± 1.21) [mm] | root length, mean ([1]; 10 nM, control 16.3 ± 1.21) [mm] | IC50 at 72 h [2] [µM] | IC50 at 72 h [3] [µM] | IC50 at 72 h [4] [µM] | melting point | IC50 at 72 h [5] [µM] | root length, mean [1, 6] [mm] | elongation of roots (growth-promoting activity) compared to the control [1] | inhibitory effect on Arabidopsis root growth ([1]; tested 0.1 to 10 nM, selected derivatives also 100 nM)
1 | C[C@H](C(=O)N1CCCCC1)[C@H]1CC[C@H]2[C@@H]3CC(=O)[C@H]4C[C@H](O)[C@H](O)C[C@]4(C)[C@H]3CC[C@]12C [8d, 1-((20S)-2α,3α-dihydroxy-6-oxo-5α-pregnane-20-carbonyl)piperidine] | 17.11 | 15.97 | 14.18 | > 50 | > 50 | > 50 | > 230 °C (dec.) | > 50 | – | – | –
2 | CCN(CC)C(=O)[C@@H](C)[C@H]1CC[C@H]2[C@@H]3CC(=O)[C@H]4C[C@H](O)[C@H](O)C[C@]4(C)[C@H]3CC[C@]12C [8b, N,N-diethyl-(20S)-2α,3α-dihydroxy-6-oxo-5α-pregnane-20-carboxamide] | 18.41 | 15.15 | 16.95 | > 50 | > 50 | > 50 | > 200 °C (dec.) | > 50 | 13.836 | slight elongation of roots; also recorded: interesting growth-promoting activity | –
3 | CCN(CC)C[C@H](O)[C@H](O)[C@@H](C)[C@H]1CC[C@H]2[C@@H]3CC(=O)[C@H]4C[C@H](O)[C@H](O)C[C@]4(C)[C@H]3CC[C@]12C.Cl [22b, N,N-diethyl-((20S,22R,23S)-2α,3α,22,23-tetrahydroxy-6-oxo-5α-cholan-24-yl)aminium chloride] | 14.51 | 15.32 | 15.48 | > 50 | > 50 | > 50 | > 250 °C (dec.) | > 50 | 15.160 | – | the same effect only at low concentrations
4 | C[C@H](C(=O)N1CCCC1)[C@H]1CC[C@H]2[C@@H]3CC(=O)[C@H]4C[C@H](O)[C@H](O)C[C@]4(C)[C@H]3CC[C@]12C [8c, 1-((20S)-2α,3α-dihydroxy-6-oxo-5α-pregnane-20-carbonyl)pyrrolidine] | 17.61 | 18.58 | 15.97 | > 50 | > 50 | > 50 | > 180 °C (dec.) | > 50 | – | – | –
5 | C[C@H]([C@@H](O)[C@H](O)C(=O)N1CCOCC1)[C@H]1CC[C@H]2[C@@H]3CC(=O)[C@H]4C[C@H](O)[C@H](O)C[C@]4(C)[C@H]3CC[C@]12C [20e, 4-((20S,22R,23S)-2α,3α,22,23-tetrahydroxy-6-oxo-5α-cholan-24-oyl)morpholine] | 17.44 | 16.78 | 15.97 | > 50 | > 50 | > 50 | > 210 °C (dec.) | > 50 | – | – | –
6 | C[C@H]([C@@H](O)[C@@H](O)CN1CCCC1)[C@H]1CC[C@H]2[C@@H]3CC(=O)[C@H]4C[C@H](O)[C@H](O)C[C@]4(C)[C@H]3CC[C@]12C.Cl [22c, 1-((20S,22R,23S)-2α,3α,22,23-tetrahydroxy-6-oxo-5α-cholan-24-yl)pyrrolidinium chloride] | 15.97 | 14.83 | 15.81 | > 50 | > 50 | > 50 | > 250 °C (dec.) | > 50 | – | – | –
7 | C[C@H](CN1CCCC1)[C@H]1CC[C@H]2[C@@H]3CC(=O)[C@H]4C[C@H](O)[C@H](O)C[C@]4(C)[C@H]3CC[C@]12C [15c, (20S)-20-(pyrrolidin-1-ylmethyl)-2α,3α-dihydroxy-5α-pregnane-6-one] | 16.78 | 14.37 | 17.21 | > 50 | > 50 | > 50 | > 240 °C (dec.) | > 50 | – | – | –
8 | C[C@H]([C@@H](O)[C@@H](O)CN1CCOCC1)[C@H]1CC[C@H]2[C@@H]3CC(=O)[C@H]4C[C@H](O)[C@H](O)C[C@]4(C)[C@H]3CC[C@]12C.Cl [22e, 4-((20S,22R,23S)-2α,3α,22,23-tetrahydroxy-6-oxo-5α-cholan-24-yl)morpholinium chloride] | 17.93 | 17.27 | 16.95 | > 50 | > 50 | > 50 | > 270 °C (dec.) | > 50 | – | interesting growth-promoting activity | –
9 | C[C@H](CN(C)C)[C@H]1CC[C@H]2[C@@H]3CC(=O)[C@H]4C[C@H](O)[C@H](O)C[C@]4(C)[C@H]3CC[C@]12C [15a, (20S)-20-(N,N-dimethylaminomethyl)-2α,3α-dihydroxy-5α-pregnane-6-one] | 14.83 | 14.29 | 14.34 | > 50 | > 50 | > 50 | 219 to 221 °C | > 50 | – | – | –
